Data: patent publication US12194053B2, “Compositions and methods for reducing oxidative damage” (University of Louisville Research Foundation, Inc., priority 2012, dated 2025)
Read-outs that look alike come from different tables or passages of the source.

Tested on: porcine lenses
Description: To analyze the efficacy and the biocompatibility of the compositions produced as described above, an ex viva analysis was undertaken in which the compositions were applied to eye lenses ex vivo. In these experiments, harvested porcine lenses were utilized.
Upon establishing the culturing conditions for the lenses, hyperoxic conditions were created and used to test the efficacy of the gelled compositions in protecting against oxidative damage and cataract formation. Briefly, in these experiments, two methods were used to test the efficacy of the compositions in preventing oxidative lens damage. Initially, oxidative damage with superoxide radicals generated by the addition of hydrogen peroxide into the lens culture medium was employed.

OO [H2O2, hydrogen peroxide]
day lens clarity started to be affected (0.3 mM H2O2): 9 days | lens area opacified by day 14 (0.3 mM H2O2): 40% | day lens opacity started (0.4 mM H2O2): 5 days | lens area covered by opacity by day 14 (0.4 mM H2O2): 60% | day lens opacity started (0.5 mM H2O2): 3 days | lens opacity on day 14 (0.5 mM H2O2): 90% | extent of cataract by day 5 (1 mM H2O2): total cataract | time lens opacity first appeared (1 mM H2O2 in lens culture medium): 24 h | lens opacification (H2O2 concentrations below 0.3 mM, up to 28 days of ex vivo culturing): did not appear to cause any lens opacification
